Columns and labels:
[1] = biological target: T1, GABA-A receptor; alpha-1/beta-3/gamma-2 (Homo sapiens) (UniProt P14867+P18507+P28472); assay: Inverse agonistic activity against GABA-A receptor alpha-1-beta-3-gamma-2 subunits; type: functional
[2] = biological target: T2, GABA-A receptor; alpha-5/beta-3/gamma-2 (Homo sapiens, UniProt P18507+P28472+P31644); assay: Binding affinity for human GABA-A receptor alpha-5-beta-3-gamma-2 subunits in L(tk-) cells; type: cell-based
T2 sequence (P18507 whole entry): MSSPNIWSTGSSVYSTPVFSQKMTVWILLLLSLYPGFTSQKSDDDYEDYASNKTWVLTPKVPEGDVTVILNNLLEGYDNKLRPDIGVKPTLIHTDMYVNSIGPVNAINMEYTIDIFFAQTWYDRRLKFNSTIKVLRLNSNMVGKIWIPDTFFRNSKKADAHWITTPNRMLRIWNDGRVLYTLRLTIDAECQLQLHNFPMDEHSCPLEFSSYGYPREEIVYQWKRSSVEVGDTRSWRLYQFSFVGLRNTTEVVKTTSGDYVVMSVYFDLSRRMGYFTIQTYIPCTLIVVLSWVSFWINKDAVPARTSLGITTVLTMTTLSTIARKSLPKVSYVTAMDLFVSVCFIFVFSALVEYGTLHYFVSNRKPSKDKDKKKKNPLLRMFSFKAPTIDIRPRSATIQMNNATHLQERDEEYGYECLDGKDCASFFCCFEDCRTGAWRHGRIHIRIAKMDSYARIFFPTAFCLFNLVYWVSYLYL
T2 sequence (P28472 whole entry): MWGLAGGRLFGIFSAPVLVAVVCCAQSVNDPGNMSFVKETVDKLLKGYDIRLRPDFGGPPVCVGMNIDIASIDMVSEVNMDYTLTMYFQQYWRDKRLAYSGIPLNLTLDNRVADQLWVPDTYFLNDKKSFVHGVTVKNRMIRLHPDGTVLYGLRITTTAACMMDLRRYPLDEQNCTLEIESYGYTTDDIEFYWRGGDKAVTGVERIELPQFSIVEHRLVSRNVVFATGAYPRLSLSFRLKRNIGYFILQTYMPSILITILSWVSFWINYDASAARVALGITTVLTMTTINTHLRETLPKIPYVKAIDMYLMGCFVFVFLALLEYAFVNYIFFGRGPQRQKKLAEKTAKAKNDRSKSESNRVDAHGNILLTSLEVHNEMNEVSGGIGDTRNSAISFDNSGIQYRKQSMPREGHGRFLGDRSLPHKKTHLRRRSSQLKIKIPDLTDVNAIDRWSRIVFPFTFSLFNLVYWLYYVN
T2 sequence (P31644 whole entry): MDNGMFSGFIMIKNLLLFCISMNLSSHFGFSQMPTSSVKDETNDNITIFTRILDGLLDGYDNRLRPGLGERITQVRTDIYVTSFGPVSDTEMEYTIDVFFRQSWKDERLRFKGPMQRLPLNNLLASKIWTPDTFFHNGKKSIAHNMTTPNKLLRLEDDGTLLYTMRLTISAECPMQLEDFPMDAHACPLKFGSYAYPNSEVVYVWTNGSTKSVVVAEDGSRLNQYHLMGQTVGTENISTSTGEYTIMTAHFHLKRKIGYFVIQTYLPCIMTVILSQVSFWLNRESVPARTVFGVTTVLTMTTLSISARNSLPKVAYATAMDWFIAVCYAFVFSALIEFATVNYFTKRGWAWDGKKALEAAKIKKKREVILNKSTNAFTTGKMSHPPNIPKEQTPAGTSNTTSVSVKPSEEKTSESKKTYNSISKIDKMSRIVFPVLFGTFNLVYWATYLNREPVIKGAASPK

[3] = biological target: T3, GABA-A receptor; alpha-1/beta-3/gamma-2 (Homo sapiens, UniProt P14867+P18507+P28472); assay: Binding affinity for human GABA-A receptor alpha-1-beta-3-gamma-2 subunits in L(tk-) cells
T3 sequence (P14867 whole entry): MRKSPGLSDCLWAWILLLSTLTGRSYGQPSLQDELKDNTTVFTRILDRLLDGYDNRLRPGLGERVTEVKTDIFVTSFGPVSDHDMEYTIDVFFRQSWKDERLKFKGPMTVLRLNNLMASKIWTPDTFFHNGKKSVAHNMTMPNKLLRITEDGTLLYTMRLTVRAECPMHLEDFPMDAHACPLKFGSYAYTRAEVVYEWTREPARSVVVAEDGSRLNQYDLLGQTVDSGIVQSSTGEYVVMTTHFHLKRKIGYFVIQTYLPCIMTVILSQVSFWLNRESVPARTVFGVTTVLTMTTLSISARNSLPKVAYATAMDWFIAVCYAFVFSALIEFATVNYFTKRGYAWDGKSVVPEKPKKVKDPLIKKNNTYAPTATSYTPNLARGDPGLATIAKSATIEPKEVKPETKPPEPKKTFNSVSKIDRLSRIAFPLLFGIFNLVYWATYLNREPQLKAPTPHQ
T3 sequence (P18507 whole entry): T2 sequence (P18507 whole entry)
T3 sequence (P28472 whole entry): T2 sequence (P28472 whole entry)

[4] = biological target: T4, GABA-A receptor; alpha-3/beta-3/gamma-2 (Homo sapiens, UniProt P18507+P28472+P34903); assay: Binding affinity for human GABA-A receptor alpha-3-beta-3-gamma-2 subunits in L(tk-) cells; type: cell-based
T4 sequence (P18507 whole entry): T2 sequence (P18507 whole entry)
T4 sequence (P28472 whole entry): T2 sequence (P28472 whole entry)
T4 sequence (P34903 whole entry): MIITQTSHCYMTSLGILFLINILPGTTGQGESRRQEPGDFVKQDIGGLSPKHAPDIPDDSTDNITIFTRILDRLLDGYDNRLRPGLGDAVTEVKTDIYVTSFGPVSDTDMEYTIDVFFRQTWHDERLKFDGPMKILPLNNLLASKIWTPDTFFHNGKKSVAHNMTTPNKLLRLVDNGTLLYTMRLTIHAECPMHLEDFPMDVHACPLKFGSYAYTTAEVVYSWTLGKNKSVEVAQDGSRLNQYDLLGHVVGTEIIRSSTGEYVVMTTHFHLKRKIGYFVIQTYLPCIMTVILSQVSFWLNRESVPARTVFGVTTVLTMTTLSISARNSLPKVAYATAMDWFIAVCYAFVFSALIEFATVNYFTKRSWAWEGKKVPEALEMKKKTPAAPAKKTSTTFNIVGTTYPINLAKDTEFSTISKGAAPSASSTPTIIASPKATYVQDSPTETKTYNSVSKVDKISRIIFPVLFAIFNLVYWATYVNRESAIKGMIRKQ

[5] = biological target: T5, GABA-A receptor; alpha-2/beta-3/gamma-2 (Homo sapiens, UniProt P18507+P28472+P47869); assay: Binding affinity for human GABA-A receptor alpha-2-beta-3-gamma-2 subunits in L(tk-) cells; type: cell-based
T5 sequence (P18507 whole entry): T2 sequence (P18507 whole entry)
T5 sequence (P28472 whole entry): T2 sequence (P28472 whole entry)
T5 sequence (P47869 whole entry): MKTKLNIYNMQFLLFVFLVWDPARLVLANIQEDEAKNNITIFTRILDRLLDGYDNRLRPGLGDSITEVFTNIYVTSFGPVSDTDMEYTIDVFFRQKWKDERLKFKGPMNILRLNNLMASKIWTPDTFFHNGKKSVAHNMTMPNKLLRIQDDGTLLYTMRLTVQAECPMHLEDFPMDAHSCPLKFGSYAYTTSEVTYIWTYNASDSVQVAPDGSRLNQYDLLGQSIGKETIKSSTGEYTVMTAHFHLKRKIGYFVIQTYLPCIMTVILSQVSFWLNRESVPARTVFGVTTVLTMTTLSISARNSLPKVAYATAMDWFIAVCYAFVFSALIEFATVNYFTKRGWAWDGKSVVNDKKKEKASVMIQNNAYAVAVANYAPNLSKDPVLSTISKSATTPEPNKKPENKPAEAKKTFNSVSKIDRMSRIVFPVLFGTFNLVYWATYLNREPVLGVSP

[6] = biological target: T6, GABA-A receptor; alpha-3/beta-3/gamma-2 (Homo sapiens) (UniProt P18507+P28472+P34903); assay: Inverse agonistic activity against GABA-A receptor alpha-3-beta-3-gamma-2 subunits; type: functional
[7] = biological target: T6, GABA-A receptor; alpha-3/beta-3/gamma-2 (Homo sapiens); assay: Agonistic activity against GABA-A receptor alpha-3-beta-3-gamma-2; type: functional
[8] = biological target: T6, GABA-A receptor; alpha-3/beta-3/gamma-2 (Homo sapiens); assay: (§1) Maximum percent change compared to GABA EC20 against GABA-A alpha-3-beta-3-gamma-2 receptor; type: functional
[9] = biological target: T1, GABA-A receptor; alpha-1/beta-3/gamma-2 (Homo sapiens); assay: (§2) Maximum percent change compared to GABA EC20 against GABA-A alpha-1-beta-3-gamma-2 receptor; type: functional
[10] = biological target: GABA-A receptor; alpha-5/beta-3/gamma-2 (Homo sapiens) (UniProt P18507+P28472+P31644); assay: Maximum percent change compared to GABA EC20 against GABA-A alpha-5-beta-3-gamma-2 receptor; type: functional
[11] = biological target: GABA-A receptor; alpha-2/beta-3/gamma-2 (Homo sapiens) (UniProt P18507+P28472+P47869); assay: Maximum percent change compared to GABA EC20 against GABA-A alpha-2-beta-3-gamma-2 receptor; type: functional
[12] = biological target: T1, GABA-A receptor; alpha-1/beta-3/gamma-2 (Homo sapiens); assay: as §2; type: protein-complex assay
[13] = biological target: T6, GABA-A receptor; alpha-3/beta-3/gamma-2 (Homo sapiens); assay: as §1; type: functional; remark: listed apart in the source

Compound	Activity [1] [%]	Ki [2] [nM]	Ki [3] [nM]	Ki [4] [nM]	Ki [5] [nM]	Activity [6] [%]	Activity [7] [%]	Efficacy [8] [%]	Efficacy [9] [%]	Efficacy [10] [%]	Efficacy [11] [%]	Efficacy [12] [%]	Efficacy [13] [%]
c1ccc(COc2nn3c(C4CC4)nnc3c3ccccc23)nc1	-20	0.74	16	2.6	5.8	-26							
Cc1nnc2c3ccccc3c(OCc3ccccn3)nn12		29	900	81	470		-38						
Cc1cccc2c(OCc3ccccn3)nn3c(-c4ccccc4)nnc3c12		0.84	1.2	0.37	1.8			19	0				
C=Cc1nnc2c3ccccc3c(OCc3ccccn3)nn12		3.2	49	11	28			-31					
c1ccc(-c2nnc3c4c(c(OCc5ccccn5)nn23)CCCCC4)cc1		2.7	41	17	17			30	30	37	27		
c1ccc(-c2nnc3c4c(c(OCc5ccccn5)nn23)CCCC4)cc1		0.38	4.3	0.85	1.9			17	16	6	18		
Cc1cccc2c1c(OCc1ccccn1)nn1c(-c3ccccc3)nnc21		20	56	35	44			39	43				
CC(C)c1nnc2c3ccccc3c(OCc3ccccn3)nn12		8	160	39	56	-21							
CC(Oc1nn2c(-c3ccccc3)nnc2c2ccccc12)c1ccccn1 (centres undefined)		140	960	320	520			25				36	
c1ccc(-c2nnc3c4ccccc4c(OCc4ccccn4)nn23)cc1		0.33	2.7	0.71	1.7			-16	-7	-5	-5	-7	-16
Clc1cccc(COc2nn3c(-c4ccccc4)nnc3c3ccccc23)c1		> 1000	> 1000	> 1000	> 1000								
